For eight molecules, GI50 results are on record in paper PMC12652692, “Synthesis and In Vitro Anticancer Evaluation of Novel Phosphonium Derivatives of Chrysin” (International Journal of Molecular Sciences, 2025).

Experiment in all cases: NCI60 five-dose screen
Holding throughout (format): cell-based

One experiment concerns NCI-H226. As to conditions: Homo sapiens; NCI-H226, Non-small-Cell Lung Cancer. An outline of the steps: (§1)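 Five-concentration 48 h exposure in RPMI 1640/5% FBS medium at 37 °C, with cells seeded 24 h beforehand. Read-out: TCA fixation and SRB absorbance at 515 nm. GI50 marks 50% reduction of net protein increase.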
For the next experiment, the system named is COLO 205. As to conditions: Homo sapiens; COLO 205, Colon Cancer. In a few lines:
as §1

For the next experiment, the system named is MOLT-4. The note with it: Homo sapiens; MOLT-4, Leukemia. An outline of the steps: as §1
A further experiment deals with HS 578T. As to conditions: Homo sapiens, Breast Cancer. An outline of the steps:
as §1

The subject of a further experiment is SK-MEL-28. The note with it: Homo sapiens; SK-MEL-28, Melanoma. An outline of the steps: as §1
The test system of another experiment is IGROV1. The note with it: Homo sapiens, IGROV-1; IGROV1, Ovarian Cancer. An outline of the steps: as §1
A further experiment concerns SK-MEL-5. The note with it: Homo sapiens; SK-MEL-5, Melanoma. An outline of the steps:
as §1

The test system of the next experiment is LOX IMVI. The note with it: Homo sapiens, Melanoma. In a few lines: as §1
Another experiment deals with MDA-MB-435. As to conditions: Homo sapiens; MDA-MB-435, Melanoma. In a few lines: as §1
A further experiment relates to SNB-19. As to conditions: Homo sapiens; SNB-19, CNS Cancer. An outline of the steps: as §1
The test system of another experiment is OVCAR-4. The note with it: Homo sapiens; OVCAR-4, Ovarian Cancer. An outline of the steps:
as §1

The subject of another experiment is 786-0. The note with it: Homo sapiens; 786-0, Renal Cancer. In a few lines:
as §1

The next experiment has as its system TK-10. As to conditions: Homo sapiens; TK-10, Renal Cancer. In a few lines: as §1
In another experiment the test system is MDA-MB231ATCC. As to conditions: Homo sapiens, MDA-MB-231, Breast Cancer. An outline of the steps: as §1
In the next experiment the test system is PC-3. The note with it: Homo sapiens; PC-3, Prostate Cancer. In a few lines:
as §1

The next experiment relates to NCI-H23. As to conditions: Homo sapiens; NCI-H23, Non-small-Cell Lung Cancer. An outline of the steps: as §1

For orientation: GI50 means the concentration giving 50% growth inhibition. A higher GI50 goes with less potent growth inhibition. Turning to `O=c1cc(-c2ccccc2)oc2cc(OCCCC[P+](c3ccccc3)(c3ccccc3)c3ccccc3)cc(O)c12` [3a], the GI50 was 0.354 µM in the experiment with NCI-H226; 1.02 µM with COLO 205; 0.338 µM in the experiment with MOLT-4; 0.306 µM in the experiment on HS 578T; 0.474 µM in the experiment with SK-MEL-28; 0.405 µM in the experiment with IGROV1. The GI50 was found to be 0.166 µM in the experiment on SK-MEL-5; 0.326 µM in the experiment with LOX IMVI; 0.299 µM in the experiment with MDA-MB-435; 0.279 µM with SNB-19; 0.37 µM in the experiment with OVCAR-4; 0.553 µM with 786-0. Besides, the 50% growth inhibitory concentration (GI50) with TK-10 was 0.464 µM; in the experiment on MDA-MB231ATCC it was 0.24 µM; in the experiment on PC-3, 0.305 µM; in the experiment on NCI-H23, 0.302 µM.
For `Cc1ccc([P+](CCCCOc2cc(O)c3c(=O)cc(-c4ccccc4)oc3c2)(c2ccc(C)cc2)c2ccc(C)cc2)cc1` [3b], the concentration for 50% growth inhibition (GI50) came to 0.277 µM in the experiment on NCI-H226; 0.419 µM in the experiment on COLO 205; 0.322 µM in the experiment with MOLT-4; 0.366 µM with HS 578T; 0.514 µM in the experiment with SK-MEL-28; 0.416 µM with IGROV1. Further, the 50% growth inhibitory concentration (GI50) in the experiment on SK-MEL-5 was found to be 0.153 µM; in the experiment with LOX IMVI, 0.287 µM; in the experiment with MDA-MB-435, 0.238 µM; in the experiment on SNB-19, 0.295 µM; with OVCAR-4 it was 0.247 µM; with 786-0, 0.373 µM. Besides, the GI50 in the experiment with TK-10 was determined as 0.313 µM; in the experiment with MDA-MB231ATCC, 0.32 µM; in the experiment on PC-3 it was 0.182 µM; in the experiment on NCI-H23, 0.241 µM.
Turning to `COc1ccc([P+](CCCCOc2cc(O)c3c(=O)cc(-c4ccccc4)oc3c2)(c2ccc(OC)cc2)c2ccc(OC)cc2)cc1` [3c], the GI50 in the experiment on NCI-H226 stood at 0.606 µM; with COLO 205, 0.455 µM; in the experiment with MOLT-4 it was 0.453 µM; in the experiment with HS 578T it was 0.332 µM; with SK-MEL-28, 0.453 µM; in the experiment on IGROV1, 0.413 µM. In addition, the 50% growth inhibitory concentration (GI50) was 0.331 µM in the experiment on SK-MEL-5; 0.355 µM in the experiment on LOX IMVI; 0.319 µM in the experiment with MDA-MB-435; 0.333 µM in the experiment with SNB-19; 0.382 µM in the experiment with OVCAR-4; 1.21 µM with 786-0. Also, the GI50 was found to be 1.09 µM in the experiment with TK-10, 0.315 µM in the experiment with MDA-MB231ATCC, 0.32 µM in the experiment with PC-3 and 0.423 µM with NCI-H23.
As for `O=c1cc(-c2ccccc2)oc2cc(OCCCC[P+](c3ccc(F)cc3)(c3ccc(F)cc3)c3ccc(F)cc3)cc(O)c12` [3d], the GI50 was 1.82 µM in the experiment on NCI-H226; 1.62 µM in the experiment on COLO 205; 1.9 µM in the experiment on MOLT-4; 1.98 µM in the experiment on HS 578T; 1.69 µM in the experiment on SK-MEL-28; 1.89 µM with IGROV1. Further, the GI50 in the experiment with SK-MEL-5 was 1.51 µM; in the experiment with LOX IMVI, 1.69 µM; in the experiment with MDA-MB-435 it was 1.55 µM; in the experiment on SNB-19, 1.67 µM; with OVCAR-4 it was 1.64 µM; with 786-0, 1.83 µM. Also, the GI50 in the experiment on TK-10 was 1.74 µM; in the experiment on MDA-MB231ATCC, 1.91 µM; in the experiment on PC-3, 1.76 µM; with NCI-H23, 1.65 µM.
Consider `O=c1cc(-c2ccccc2)oc2cc(OCCCC[P+](C3CCCCC3)(C3CCCCC3)C3CCCCC3)cc(O)c12` [3e], for which the GI50 with NCI-H226 amounted to 1.1 µM; with COLO 205, 0.812 µM; with MOLT-4, 1.01 µM; in the experiment on HS 578T, 0.838 µM; in the experiment with SK-MEL-28 it was 0.423 µM; with IGROV1 it was 0.774 µM. Further, the GI50 in the experiment on SK-MEL-5 amounted to 0.369 µM; with LOX IMVI, 0.938 µM; in the experiment on MDA-MB-435 it was 0.341 µM; in the experiment on SNB-19, 0.505 µM; in the experiment with OVCAR-4, 0.686 µM; with 786-0 it was 1.57 µM. Also, the GI50 in the experiment with TK-10 was found to be 1.43 µM; with MDA-MB231ATCC it was 0.366 µM; with PC-3 it was 0.501 µM; in the experiment on NCI-H23 it was 1.34 µM.
With `COc1c(C)cc([P+](CCCCOc2cc(O)c3c(=O)cc(-c4ccccc4)oc3c2)(c2cc(C)c(OC)c(C)c2)c2cc(C)c(OC)c(C)c2)cc1C` [3f], the GI50 is 0.249 µM in the experiment with NCI-H226; 0.791 µM in the experiment on COLO 205; 0.238 µM in the experiment on MOLT-4; 0.361 µM with HS 578T; 0.491 µM in the experiment with SK-MEL-28; 0.346 µM in the experiment on IGROV1. Further, the GI50 with SK-MEL-5 was 0.168 µM; in the experiment with LOX IMVI, 0.284 µM; in the experiment on MDA-MB-435 it was 0.296 µM; with SNB-19, 0.276 µM; with OVCAR-4, 0.351 µM; in the experiment with 786-0 it was 0.338 µM. The GI50 stood at 0.427 µM in the experiment with TK-10, 0.258 µM in the experiment with MDA-MB231ATCC, 0.276 µM with PC-3 and 0.283 µM in the experiment with NCI-H23.
On to `Cc1ccccc1[P+](CCCCOc1cc(O)c2c(=O)cc(-c3ccccc3)oc2c1)(c1ccccc1C)c1ccccc1C` [3g], for which the 50% growth inhibitory concentration (GI50) in the experiment on NCI-H226 came out at 0.399 µM; with COLO 205, 0.351 µM; in the experiment with MOLT-4 it was 0.235 µM; with HS 578T, 0.232 µM; in the experiment with SK-MEL-28 it was 0.323 µM; in the experiment on IGROV1, 0.428 µM. Moreover, the GI50 came out at 0.198 µM in the experiment on SK-MEL-5; 0.17 µM in the experiment with LOX IMVI; 0.32 µM in the experiment with MDA-MB-435; 0.353 µM in the experiment on SNB-19; 0.429 µM in the experiment on OVCAR-4; 0.291 µM in the experiment on 786-0. The concentration for 50% growth inhibition (GI50) is 0.414 µM in the experiment on TK-10, 0.337 µM in the experiment with MDA-MB231ATCC, 0.308 µM in the experiment on PC-3 and 0.243 µM with NCI-H23.
For the molecule `O=c1cc(-c2ccccc2)oc2cc(OCCCC[P+](c3ccccc3)(c3ccccc3)c3ccccn3)cc(O)c12` [3h], the GI50 in the experiment with NCI-H226 is 1.56 µM; in the experiment on COLO 205 it was 1.64 µM; with MOLT-4, 0.424 µM; in the experiment with HS 578T it was 1.13 µM; in the experiment with SK-MEL-28 it was 0.57 µM; in the experiment on IGROV1, 0.653 µM. The concentration for 50% growth inhibition (GI50) with SK-MEL-5 turned out to be 0.278 µM; in the experiment on LOX IMVI it was 0.694 µM; in the experiment on MDA-MB-435, 0.376 µM; in the experiment on SNB-19, 0.524 µM; in the experiment with OVCAR-4 it was 1.14 µM; with 786-0, 1.57 µM. Moreover, the 50% growth inhibitory concentration (GI50) was determined as 1.69 µM with TK-10, 0.906 µM with MDA-MB231ATCC, 0.572 µM in the experiment with PC-3 and 0.776 µM in the experiment with NCI-H23.
